Measurements as given in patent US10370436B2, “Anti-pseudomonas Psl binding molecules and uses thereof” (priority 2011, dated 2019).

System: P. aeruginosa PAO10 LPS
Assay: Endotoxemia (LPS challenge) model
Format: in vivo, C57Bl/6 mice
Conditions: 0.2 mg/kg i.p. 2 h prior to challenge
Description: In particular, C57Bl/6 mice (10 per group) were dosed i.p. with mAb or PMB-mAb conjugate 6 h prior to challenge with P. aeruginosa PAO10 LPS (Sigma) and D-galactosamine. PMB control was dosed i.p. 2 h prior to challenge at 0.2 mg/kg and typically provides 80-100% protection. Control mice dosed with unconjugated CAM-003 all died within 18 h.
TM conjugates were dosed at 45, 15 and 5 mg/kg.

Q: How did the protection turn out when Polymyxin B [PMB, reference compound] was run?
A: Its protection is 80-100%.
